PMC6487875 (Biochemistry, 2018)

How the values were obtained:
[1] = target: T1, GOT1 (glutamate oxaloacetate transaminase 1, aspartate aminotransferase 1) (Homo sapiens, UniProt P17174); assay: X-ray crystal structure, […] Å; format: binding
[2] = target: T1, GOT1 (glutamate oxaloacetate transaminase 1, aspartate aminotransferase 1); assay: GLOX/HRP-coupled GOT1 enzyme assay; format: biochemical
[3] = target: T1, GOT1 (glutamate oxaloacetate transaminase 1, aspartate aminotransferase 1); assay: GLOX/HRP-coupled enzyme kinetics; format: biochemical

T1 sequence (P17174 2-413): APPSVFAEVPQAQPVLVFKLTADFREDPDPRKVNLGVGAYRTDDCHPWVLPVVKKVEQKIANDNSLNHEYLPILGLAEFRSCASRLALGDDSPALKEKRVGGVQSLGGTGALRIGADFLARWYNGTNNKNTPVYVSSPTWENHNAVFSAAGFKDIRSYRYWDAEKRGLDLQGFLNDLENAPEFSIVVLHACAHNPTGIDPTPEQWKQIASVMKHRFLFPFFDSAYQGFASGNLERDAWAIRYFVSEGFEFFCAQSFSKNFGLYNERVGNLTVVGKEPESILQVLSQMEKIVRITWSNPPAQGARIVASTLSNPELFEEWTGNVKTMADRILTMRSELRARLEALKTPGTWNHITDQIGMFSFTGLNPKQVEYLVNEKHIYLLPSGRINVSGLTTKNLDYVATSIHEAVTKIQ

SMILES: Cc1ncc(COP(=O)(O)O)c(C=O)c1O [PLP]
- X-ray crystal structure, 2.10 Å [1]: The WT-GOT1 structure is a homodimer, each of which contains PLP.

SMILES: O=C(Nc1ccccc1)N1CCN(c2cccc3[nH]ccc23)CC1 [iGOT1-01]
- IC50 [2]: 11.3 µM

SMILES: O=C(O)CCC(=O)C(=O)O [α-ketoglutarate]
- Km [3]: ~ 0.5 mM
